Legend:
Bcl-xL = Bcl-xL (Homo sapiens (Human), UniProt Q07817); test: Bcl-xL/Bim Fluorescence Resonance Energy Transfer Assay (FRET); type: binding
Experimental: Bcl-xL/Bim Fluorescence Resonance Energy Transfer Assay (FRET) The assays were performed in black flat-bottom 384-well plates. The final assay volume was 55 μl prepared from additions of Biotin-Bcl-xL (Bcl-xL: GENBANK® Accession No. […] The reaction was incubated at room temperature for 60 minutes. After 60 minutes, 5 μL of Streptavidin-Terbium FRET detection reagent (Perkin Elmer) was added to the reaction mixture and incubated at room temperature in the dark for 30 mins. […] Compounds were dissolved at 10 mM in dimethylsulfoxide (DMSO) and evaluated at eleven concentrations. IC50 values were derived by non-linear regression analysis.

Bcl-2 = Bcl-2 (Homo sapiens (Human), UniProt P10415); test: Bcl-2/Bim Fluorescence Polarization Assay (FPA); type: binding
Chain of Bcl-2 (P10415 whole entry): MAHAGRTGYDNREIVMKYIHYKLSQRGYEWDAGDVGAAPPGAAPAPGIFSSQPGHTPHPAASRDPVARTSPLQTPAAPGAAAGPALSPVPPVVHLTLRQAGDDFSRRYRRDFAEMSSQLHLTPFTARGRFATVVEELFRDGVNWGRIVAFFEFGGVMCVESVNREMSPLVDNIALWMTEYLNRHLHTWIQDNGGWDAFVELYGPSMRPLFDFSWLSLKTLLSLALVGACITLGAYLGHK
Experimental: Bcl-2/Bim Fluorescence Polarization Assay (FPA)
The assays were performed in black flat-bottom 384-well plates. […] The reaction was incubated at room temperature for 60 minutes and fluorescence polarization of the reaction was detected on the LJL Plate Reader. Inhibition data were calculated from mP values generated by the no protein control reactions for 100% inhibition and vehicle-only reactions for 0% inhibition. The final concentrations of reagents in the assay were 4.9 nM BCL-2, 5 nM fluoresceinated 18-mer BIM peptide and 1% DMSO. […] Compounds were dissolved at 10 mM in dimethylsulfoxide (DMSO) and evaluated at eleven concentrations. IC50 values were derived by non-linear regression analysis.

Chain of Bcl-xL (Q07817 whole entry): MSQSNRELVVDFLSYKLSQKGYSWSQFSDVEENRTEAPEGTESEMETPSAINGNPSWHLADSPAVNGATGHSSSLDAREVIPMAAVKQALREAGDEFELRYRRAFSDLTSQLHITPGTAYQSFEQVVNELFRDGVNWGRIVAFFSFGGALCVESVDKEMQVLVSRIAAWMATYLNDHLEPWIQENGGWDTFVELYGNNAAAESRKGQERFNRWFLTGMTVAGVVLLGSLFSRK

Row | IC50 (Bcl-xL) [nM] | IC50 (Bcl-2) [nM] | SMILES
1 | 200 | 1650 | CCCCN(CCCC)C(=O)c1nn(-c2ccc(C(=O)NS(=O)(=O)c3ccc4ccccc4c3)cc2C(=O)N2Cc3ccccc3C[C@@H]2C(=O)O)c(C)c1Cl [Example 93, (3R)-2-(2-(4-Chloro-3-(dibutylcarbamoyl)-5-methyl-1H-pyrazol-1-yl)-5-(naphthalen-2-ylsulfonylcarbamoyl)benzoyl)-1,2,3,4-tetrahydroisoquinoline-3-carboxylic acid]
2 | 60 | 120 | CCCCN(CCCC)C(=O)c1nn(-c2ccc(C(=O)NS(=O)(=O)c3ccc4ccccc4c3)cc2C(=O)N2COc3ccccc3C2)c(C)c1Cl [Example 96, N,N-Dibutyl-4-chloro-1-(2-(3,4-dihydro-2H-benzo[e][1,3]oxazine-3-carbonyl)-4-(naphthalen-2-ylsulfonylcarbamoyl)phenyl)-5-methyl-1H-pyrazole-3-carboxamide]
3 | 3510 | 4710 | CCCCN(CCCC)C(=O)c1nn(-c2ccc(C(=O)NS(=O)(=O)c3ccc4ccccc4c3)cc2C(=O)N2CCc3ccc(C(=O)O)cc3C2)c(C)c1Cl [Example 100, 2-(2-(4-Chloro-3-(dibutylcarbamoyl)-5-methyl-1H-pyrazol-1-yl)-5-(naphthalen-2-ylsulfonylcarbamoyl)benzoyl)-1,2,3,4-tetrahydroisoquinoline-7-carboxylic acid]
4 | 130 | 440 | CCCCN(CCCC)C(=O)c1nn(-c2ccc(C(=O)NS(=O)(=O)c3ccc4ccccc4c3)cc2C(=O)N2Cc3ccccc3S(=O)(=O)C2)c(C)c1Cl [Example 104, N,N-Dibutyl-4-chloro-1-(2-(1,1-dioxido-3,4-dihydro-2H-benzo[e][1,3]thiazine-3-carbonyl)-4-(naphthalen-2-ylsulfonylcarbamoyl)phenyl)-5-methyl-1H-pyrazole-3-carboxamide]
5 | 30 | 20 | CCCCN(CCCC)C(=O)c1nn(-c2ccc(C(=O)NS(=O)(=O)c3ccc4ccccc4c3)cc2C(=O)N2Cc3ccccc3C[C@H]2COCCCOC)c(C)c1Cl [Example 105, N,N-Dibutyl-4-chloro-1-(2-((S)-3-((3-methoxypropoxy)methyl)-1,2,3,4-tetrahydroisoquinoline-2-carbonyl)-4-(naphthalen-2-ylsulfonylcarbamoyl)phenyl)-5-methyl-1H-pyrazole-3-carboxamide]
6 | 20 | 90 | CCCCN(CCCC)C(=O)c1nn(-c2ccc(C(=O)NS(=O)(=O)c3ccc4ccccc4c3)cc2C(=O)N2Cc3ccccc3C[C@H]2CN2CCN(CCO)CC2)c(C)c1Cl [Example 115, N,N-dibutyl-4-chloro-1-(2-((S)-3-((4-(2-hydroxyethyl)piperazin-1-yl)methyl)-1,2,3,4-tetrahydroisoquinoline-2-carbonyl)-4-(naphthalen-2-ylsulfonylcarbamoyl)phenyl)-5-methyl-1H-pyrazole-3-carboxamide]
7 | 10 | 50 | CCCCN(CCCC)C(=O)c1nn(-c2ccc(C(=O)NS(=O)(=O)c3ccc4ccccc4c3)cc2C(=O)N2Cc3ccccc3C[C@H]2COCCO)c(C)c1Cl [Example 119, N,N-Dibutyl-4-chloro-1-(2-((S)-3-((2-hydroxyethoxy)methyl)-1,2,3,4-tetrahydroisoquinoline-2-carbonyl)-4-(naphthalen-2-ylsulfonylcarbamoyl)phenyl)-5-methyl-1H-pyrazole-3-carboxamide]
8 | 220 | 30 | CCCCN(CCc1ccc(Cl)c(Cl)c1)C(=O)c1nn(-c2ccc(C(=O)NS(=O)(=O)c3ccc4ccccc4c3)cc2C(=O)N2CCc3ccccc3C2)c(C)c1Cl [Example 127, N-butyl-4-chloro-N-(3,4-dichlorophenethyl)-5-methyl-1-(4-(naphthalen-2-ylsulfonylcarbamoyl)-2-(1,2,3,4-tetrahydroisoquinoline-2-carbonyl)phenyl)-1H-pyrazole-3-carboxamide]
9 | 80 | 110 | CCCCN(CCCC(F)(F)F)C(=O)c1nn(-c2ccc(C(=O)NS(=O)(=O)c3ccc4ccccc4c3)cc2C(=O)N2CCc3ccccc3C2)c(C)c1Cl [Example 128, N-butyl-4-chloro-5-methyl-1-(4-(naphthalen-2-ylsulfonylcarbamoyl)-2-(1,2,3,4-tetrahydroisoquinoline-2-carbonyl)phenyl)-N-(4,4,4-trifluorobutyl)-1H-pyrazole-3-carboxamide]
10 | 30 | 80 | Cc1c(Cl)c(C(=O)N(CCC(F)(F)F)CCC(F)(F)F)nn1-c1ccc(C(=O)NS(=O)(=O)c2ccc3ccccc3c2)cc1C(=O)N1CCc2ccccc2C1 [Example 130, 4-chloro-5-methyl-1-(4-(naphthalen-2-ylsulfonylcarbamoyl)-2-(1,2,3,4-tetrahydroisoquinoline-2-carbonyl)phenyl)-N,N-bis(3,3,3-trifluoropropyl)-1H-pyrazole-3-carboxamide]
11 | 30 | 70 | CCCCN(C(=O)c1nn(-c2ccc(C(=O)NS(=O)(=O)c3ccc4ccccc4c3)cc2C(=O)N2CCc3ccccc3C2)c(C)c1Cl)c1ccc2c(c1)OCCO2 [Example 149, N-butyl-4-chloro-N-(2,3-dihydrobenzo[b][1,4]dioxin-6-yl)-5-methyl-1-(4-(naphthalen-2-ylsulfonylcarbamoyl)-2-(1,2,3,4-tetrahydroisoquinoline-2-carbonyl)phenyl)-1H-pyrazole-3-carboxamide]
12 | 160 | 50 | CCCCN(C(=O)c1nn(-c2ccc(C(=O)NS(=O)(=O)c3ccc4ccccc4c3)cc2C(=O)N2CCc3ccccc3C2)c(C)c1Cl)c1cccc(-c2cccc(Cl)c2)c1 [Example 152, N-butyl-4-chloro-N-(3′-chlorobiphenyl-3-yl)-5-methyl-1-(4-(naphthalen-2-ylsulfonylcarbamoyl)-2-(1,2,3,4-tetrahydroisoquinoline-2-carbonyl)phenyl)-1H-pyrazole-3-carboxamide]
13 | 80 | 90 | CCCCN(C(=O)c1nn(-c2ccc(C(=O)NS(=O)(=O)c3ccc4ccccc4c3)cc2C(=O)N2CCc3ccccc3C2)c(C)c1Cl)c1ccc(C(=O)OC)cc1 [Example 154, methyl 4-(N-butyl-4-chloro-5-methyl-1-(4-(naphthalen-2-ylsulfonylcarbamoyl)-2-(1,2,3,4-tetrahydroisoquinoline-2-carbonyl)phenyl)-1H-pyrazole-3-carboxamido)benzoate]
14 | 20 | 70 | CCCCN(CCC(=O)NCCN1CCN(C)CC1)C(=O)c1nn(-c2ccc(C(=O)NS(=O)(=O)c3ccc4ccccc4c3)cc2C(=O)N2CCc3ccccc3C2)c(C)c1Cl [Example 158, N-Butyl-4-chloro-5-methyl-N-(3-(2-(4-methylpiperazin-1-yl)ethylamino)-3-oxopropyl)-1-(4-(naphthalen-2-ylsulfonylcarbamoyl)-2-(1,2,3,4-tetrahydroisoquinoline-2-carbonyl)phenyl)-1H-pyrazole-3-carboxamide]
15 | 30 | 230 | CCCCN(CCCC)C(=O)c1cc(C)n(-c2ccc(C(=O)NS(=O)(=O)c3ccc4ccccc4c3)cc2C(=O)N2CCc3ccccc3C2)n1 [Example 164, N,N-Dibutyl-5-methyl-1-(4-(naphthalen-2-ylsulfonylcarbamoyl)-2-(1,2,3,4-tetrahydroisoquinoline-2-carbonyl)phenyl)-1H-pyrazole-3-carboxamide]

Source: patent US9346795B2, “Substituted sulfonamides useful as antiapoptotic Bcl inhibitors” (Bristol-Myers Squibb Company, priority 2011, dated 2016)
